Source: patent publication US20240238251A9, “A Composition Comprising Heterocyclic Compounds, Preparation Method and Application Thereof” (SHANGHAI YASHENG PHARMACEUTICAL TECHNOLOGY CO., LTD., priority 2020, published 2024)

Experiment: Pharmacokinetics after oral administration in dogs
Type: in vivo, beagle dogs
Protocol: After fully grinding and mixing the samples with PEG400 (the concentration in the sample solution was 5%), a small amount (about 2 ml) of 0.2% HPMC aqueous solution was added to grind into a uniform paste until there were no large particles. Under the condition of continuous grinding, 0.2% HPMC aqueous solution was added to a sufficient amount and maintained stirring (800 RPM) for 5 minutes. After sealing the sample solution container with sealing film, it was placed in the ultrasonic instrument (40 kHz) for ultrasonic for 20 minutes (to avoid the rise of ultrasonic medium water temperature during ultrasonic process, the water temperature was controlled within 40° C.); Stopped the ultrasound, mixed the suspension evenly before use (stirring for about 3 minutes), and then sampled immediately (the concentration of the sample was 6 mg/ml).
Test method: three male beagle dogs were selected and divided into test article 1 (APG-115 particles) group and test article 2 (APG-115 hydrate) group. Each group received single oral capsule administration: after the administration of test article 1, after an 8-day cleaning period, the group name was changed to test article 2, and so on.
Blood samples were collected and plasma was separated at 0.5, 1.0, 2.0, 4.0, 6.0, 10, 24, 48, 72, 96, 120, 144 and 168 hours before and after each round of administration. All plasma samples were mailed to the client for testing. The concentration of APG-115 in dog plasma was analyzed by LC-MS/Ms. The lower limit of quantification of the method was 50 ng/ml. The non compartmental model method (NCA) of the metabolic kinetic data analysis software winnonlin 8.0.0.3176 was used to analyze the plasma concentration data and calculate the pharmacokinetic parameters. See table 21 to evaluate the kinetic characteristics of APG-115 in animals after administration.

[1] = dog, plasma, male beagle dogs, single oral administration, Mean
[2] = male beagle dogs, single oral administration, Mean

AUC(0-inf) [1]: 33400 ng·h/mL
AUC(0-t) [1]: 4580 ng·h/mL
Cmax [1]: 136 ng/mL
MRT [1]: 31.4 h
Tmax [1]: 6 h
half-life [1]: 346 h
exposure in dogs (dogs, oral, in words): very low
CL [2]: 1.013 mL/min/kg
Vd [2]: 29.08877 L/kg
SMILES: CCN1[C@@H](C(=O)NC23CCC(C(=O)O)(CC2)CC3)[C@H](c2cccc(Cl)c2F)[C@]2(C(=O)Nc3cc(Cl)ccc32)C12CCCCC2 [APG-115 hydrate]
